Measured values from patent publication US9271929B2, “Block copolymers and uses thereof” (École Polytechnique Fédérale de Lausanne (EPFL), priority 2008, dated 2016).

Experiments:
[1] = Encapsulation efficiency of small molecule pharmaceutical agents using excipient formulations; type: physicochemical; conditions: PEG-PPS system
Experimental: Samples used in Table 2 were prepared as follows. 10 mg of PEG-PPS was added to a 1.5 mL centrifuge tube with either 90 mg of PEG600 or DBU-HCl, and 2 mg of either paclitaxel or dexamethasone. This was heated at 95° C. for 15 min and mixed thoroughly. After cooling to RT, the blend was slowly diluted to 1 mL with distilled water. The free pharmaceutical agent was pelleted via centrifugation for 10 minutes at 10,000 g, and the pellet and supernatant were separately freeze dried, and analyzed in THF via gel permeation chromatography. Dexamethasone and paclitaxel results were quantified using a standard curve.

[2] = system: caco-2 cells (enterocytes) and lymphatic endothelial cells (LECs); assay: Transport in coculture model of gut lymphatic uptake; type: in vitro ADME; conditions: caco-2/LEC coculture
Experimental: Given that PEG-PPS nanoparticles can survive harsh conditions such as gastric pH, we contemplated their transport in the gut lymphatics, determining their potential to be processed by mechanisms related to fat uptake in the gut. This was measured using a coculture model of caco-2 cells (enterocytes) and lymphatic endothelial cells (LECs), allowing full characterization of uptake, packaging, and transit (collectively referred to as transport). It was determined that the surface characteristics of PPS-based nanoparticles can be engineered to provide for effective transport: for example, particles on which about 10% of the terminal chain groups were substituted with a carboxyl functionality were transported at a level 5-fold higher than that of equivalent particles lacking a surface charge. Other surface charging moieties, such as sulfates and sulfones, are similarly effective after optimization.

Uptake / transport [2] | Compound | Encapsulation, method of the invention versus solvent dispersion [1]
 | CO[C@H]1C[C@@H]2CC[C@@H](C)[C@@](O)(O2)C(=O)C(=O)N2CCCC[C@H]2C(=O)O[C@H]([C@H](C)C[C@@H]2CC[C@@H](OCCO)[C@H](OC)C2)CC(=O)[C@H](C)/C=C(\C)[C@@H](O)[C@@H](OC)C(=O)[C@H](C)C[C@H](C)/C=C/C=C/C=C/1C [everolimus] | efficiently encapsulated
 | CC(=O)O[C@H]1C(=O)[C@@]2(C)[C@H]([C@H](OC(=O)c3ccccc3)[C@]3(O)C[C@H](OC(=O)[C@H](O)[C@@H](NC(=O)c4ccccc4)c4ccccc4)C(C)=C1C3(C)C)[C@]1(OC(C)=O)CO[C@@H]1C[C@@H]2O [paclitaxel] | more efficiently encapsulated via the method of the invention
 | C[C@@H]1[C@H](O)[C@@H](C)/C=C/C=C/C=C/C=C/C=C/C=C/C=C/[C@H](O[C@@H]2O[C@H](C)[C@@H](O)[C@H](N)[C@@H]2O)C[C@@H]2O[C@](O)(C[C@@H](O)C[C@@H](O)[C@H](O)CC[C@@H](O)C[C@@H](O)CC(=O)O[C@H]1C)C[C@H](O)[C@H]2C(=O)O [amphotericin B] | more efficiently encapsulated via solvent dispersion
not well transported | dextran | 
